Measured values as given in US20240150334A1, “HSD17B13 INHIBITORS AND/OR DEGRADERS” (Pfizer Inc., priority 2022, published 2024).
pIC50: −log10 of the molar value. Counter-ions that a name gives are not always drawn.

What was measured:
[1] = target: HSD17B13 enzyme (Homo sapiens (Human), UniProt Q7Z5P4); test: hHSD17B13 IC50 Assay (FAC beta-estradiol), purified protein enzyme activity assay with NAD(P)H-Glo luciferase readout; assay type: biochemical; settings: geometric mean, 12 μM FAC beta-estradiol, 500 μM NAD+, read-out: hHSD17B13_IC50 GMean IC50
Sequence of HSD17B13 enzyme (Q7Z5P4 20-300): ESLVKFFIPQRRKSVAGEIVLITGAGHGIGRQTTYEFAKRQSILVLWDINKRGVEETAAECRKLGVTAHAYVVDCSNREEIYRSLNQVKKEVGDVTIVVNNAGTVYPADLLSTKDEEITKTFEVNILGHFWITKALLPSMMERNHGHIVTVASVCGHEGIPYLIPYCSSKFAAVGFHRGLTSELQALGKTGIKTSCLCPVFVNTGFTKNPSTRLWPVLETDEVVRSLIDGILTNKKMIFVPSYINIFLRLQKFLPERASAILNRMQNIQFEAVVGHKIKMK
Method: The following protocols may of course be varied by those skilled in the art. hHSD17B13 IC50 Assay (FAC beta-estradiol)
HSD17B13 enzyme inhibition potency of test compounds was determined using a purified protein biochemical enzyme activity assay, using NAD(P)H-Glo luciferase readout (Promega). HSD17B13 enzyme uses the oxidized form of nicotinamide adenine dinucleotide (NAD+) as a cofactor during metabolism of Beta-Estradiol (substrate) to […], while converting NAD+ to the reduced form (NADH). The Promega NAD(P)H-Glo™ assay is a homogeneous bioluminescent assay that generates a light signal from biochemical reactions that contain NADH (or nicotinamide adenine dinucleotide phosphate, NADPH). In the presence of NADH (or NADPH), the enzyme Reductase reduces a proluciferin reductase substrate to form luciferin. Luciferin then is quantified using Ultra-Glo™ Recombinant Luciferase (rLuciferase), and the light signal produced is proportional to the amount of NAD(P)H in the sample. […] The reaction was initiated by the addition of 2 μL/well purified HSD17B13 protein (30 nM FAC in assay buffer). Compound, substrate mix and HSD17B13 protein was incubated in the dark at room temperature for 2 hours before the addition of 3 μL/well NAD(P)H-Glo detection reagent, prepared from luciferase detection reagent and reductase/reductase substrate, as per manufacturer's instructions (Promega, G9061). Detection reagent was incubated in the dark for 1 hour at room temperature before plates were read on the Envision plate reader (Perkin Elmer) using a luminescent protocol. Data expressed as relative luminescent units (RLUs) were then normalized to control wells using Activity Base (IDBS). Zero percent effect (ZPE) was defined as RLUs generated from uninhibited HSD17B13 protein (vehicle control).

[2] = target: wild type human HSD17B13 (Homo sapiens (Human), UniProt Q7Z5P4); test: HEK_Beta-Est LCMS_IC50_Tekcel, whole-cell HEK-HSD17B13 inhibition assay, estrone production by LCMS; assay type: cell-based; settings: geometric mean, HEK cells stably expressing wild type human HSD17B13, 25 μM FAC beta-estradiol, read-out: HEK_Beta-Est LCMS_IC50—Tekcel GMean IC50
Sequence of wild type human HSD17B13 (Q7Z5P4 20-300): as above
How it was run: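 Readout was LCMS quantitation of estrone made from beta-estradiol with NAD+ as cofactor. Whole HEK-HSD17B13 cells were given compound for 1 hour, then the reaction for 2 hours, both at 37° C. Product area ratios were normalized to vehicle controls as zero percent effect.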

Row | Compound | pIC50 [1] | pIC50 [2]
1 | CC(C)(C)C(=O)Nc1ccc(-c2noc([C@H]3CC[C@H](CNC(=O)c4cc(F)c(O)c(F)c4)CC3)n2)nn1 [Example 17, N-{[(1r,4r)-4-{3-[6-(2,2-Dimethylpropanamido)pyridazin-3-yl]-1,2,4-oxadiazol-5-yl}cyclohexyl]methyl}-3,5-difluoro-4-hydroxybenzamide, ammonium salt] | 7.92 | 6.57
2 | O=C(NC[C@H]1CC[C@H](n2cc3ccc(Cl)cc3n2)CC1)c1cc(F)c(O)c(F)c1F [Example 25, N-{[(1r,4r)-4-(6-chloro-2H-indazol-2-yl)cylohexyl]methyl}-2,3,5-trifluoro-4-hydroxybenzamide] | 7.85 | 6.52
3 | Cc1ccc(-c2ccc3cn([C@H]4CC[C@H](CNC(=O)c5cc(F)c(O)c(F)c5)CC4)nc3c2)nc1 [Example 57, 3,5-difluoro-4-hydroxy-N-({(1r,4r)-4-[6-(5-methylpyridin-2-yl)-2H-indazol-2-yl]cyclohexyl}methyl) benzamide] | 7.59 | 6.51
4 | O=C(NC[C@H]1CC[C@H](n2cc3ccc(-c4ncccn4)cc3n2)CC1)c1cc(F)c(O)c(F)c1 [Example 24, 3,5-difluoro-4-hydroxy-N-({(1r,4r)-4-[6-(pyrimidin-2-yl)-2H-indazol-2-yl]cyclohexyl}methyl) benzamide] | 7.85 | 6.92
5 | N#Cc1ccc2cn([C@H]3CC[C@H](CNC(=O)c4cc(F)c(O)c(F)c4)CC3)nc2c1 [Example 134, N-{[(1r,4r)-4-(6-cyano-2H-indazol-2-yl)cyclohexyl]methyl}-3,5-difluoro-4-hydroxybenzamide, ammonium salt] | 7.49 | 6.33

Stronger by pIC50 [1], values ahead:

Row | pIC50 [1] | pIC50 [2] | Compound
6 | 7.96 | 6.60 | Cc1nn(C)cc1-c1ccc2cn([C@H]3CC[C@H](CNC(=O)c4cc(F)c(O)c(F)c4)CC3)nc2c1 [Example 50, N-({(1r,4r)-4-[6-(1,3-dimethyl-1H-pyrazol-4-yl)-2H-indazol-2-yl]cyclohexyl}methyl)-3,5-difluoro-4-hydroxybenzamide]
7 | > 8.59 | 7.04 | O=C(NC[C@H]1CC[C@H](n2cc3ccc(-c4cnn(C(F)F)c4)cc3n2)CC1)c1cc(F)c(O)c(F)c1 [Example 44, N-{[(1r,4r)-4-{6-[1-(difluoromethyl)-1H-pyrazol-4-yl]-2H-indazol-2-yl}cyclohexyl]methyl}-3,5-difluoro-4-hydroxybenzamide]
8 | 8.25 | 6.46 | COc1cccc(-c2ccc3cn([C@H]4CC[C@H](CNC(=O)c5cc(F)c(O)c(F)c5)CC4)nc3c2)c1 [Example 64, 3,5-difluoro-4-hydroxy-N-({(1r,4r)-4-[6-(3-methoxyphenyl)-2H-indazol-2-yl]cyclohexyl}methyl) benzamide]
9 | 8.10 | 6.82 | O=C(NC[C@]12CC[C@](c3nc(-c4cnc(C(F)(F)F)cn4)no3)(CC1)CC2)c1cc(F)c(O)c(F)c1F [Example 178, 2,3,5-trifluoro-4-hydroxy-N-[(4-{3-[5-(trifluoromethyl)pyrazin-2-yl]-1,2,4-oxadiazol-5-yl}bicyclo[2.2.2]octan-1-yl)methyl]benzamide]
10 | 8.43 | 6.85 | O=C(NC[C@]12CC[C@](c3nc(-c4ccc(C(F)(F)F)nn4)no3)(CC1)CC2)c1cc(F)c(O)cc1F [Example 185, 2,5-difluoro-4-hydroxy-N-[(4-{3-[6-(trifluoromethyl)pyridazin-3-yl]-1,2,4-oxadiazol-5-yl}bicyclo[2.2.2]octan-1-yl)methyl]benzamide]
11 | 8.00 | 6.35 | O=C(NC[C@H]1CC[C@H](n2cc3cc(C(F)(F)F)ccc3n2)CC1)c1cc(F)c(O)cc1F [Example 183, 2,5-difluoro-4-hydroxy-N-({(1r,4r)-4-[5-(trifluoromethyl)-2H-indazol-2-yl]cyclohexyl}methyl)benzamide]
